Assays:
[1] = system: heart of mouse hypoxia model; experiment: NO release level in the heart of mouse hypoxia model, NO detection kit; assay type: in vivo; conditions: mouse hypoxia model (85 mg/kg isoproterenol), 20 mg/kg intraperitoneally before modeling, FIG. 2
Excerpt: NO detection kit (Biyuntian Biotechnology Co., Ltd., Shanghai), heart tissue homogenate of hypoxia modeling and drug-given mouse, and blank control group mouse, and 6-8-week-old male Kunming mouse.
NO has chemical activity and is rapidly converted into NO3^− and NO2^− in the body, and NO2^− is further converted into NO3^−. NO^3− is reduced to NO2^− […], NO2^− has characteristic absorption at 540 nm, the absorbance is detected at 540 nm by a microplate reader, and the NO concentration is calculated using a standard curve.
• (1) Hypoxia model (85 mg/kg isoproterenol), the drug-given group was intraperitoneally injected with 20 mg/kg compound I1 before hypoxia modeling; • (2) Cardiac tissue homogenate protein was obtained by centrifugation at 12,000 rpm for 15 min; • (3) The working solution in the NO detection kit was prepared, the working solution was added to each group of proteins, after incubation, and each group of proteins was detected with an microplate reader to analyze the NO content in each group, as shown in FIG. 2.

H9c2 cells [2] = experiment: NO release level in H9c2 cells under normoxia or hypoxia, Griess method; assay type: cell-based; conditions: for NO release (%) / NO release amount (%): H9c2 cells, 4 h; for NO release (%): hypoxia (1% O2); for NO release amount (%): normoxia (21% O2)
Procedure: H9c2 cells were revived, cultured with DMEM medium, and placed in a carbon dioxide incubator to allow the cells to adhere to the wall for growth. After the cells grew to reach an appropriate density, cells were inoculated in a multi-well plate and placed in the carbon dioxide incubator for culture for 24 h at 37° C., 5% CO2, and saturated humidity until the cells adhered to the wall, the supernatant was discarded, and 2 mL of fresh DMEM medium was added. Then, a certain concentration (5, 10, 15 μM) of compounds and the reference drug of isosorbide dinitrate were added. After culturing in a normoxic incubator (37° C., 21% O2) or an anoxic incubator (37° C., 1% O2) for 4 h, the supernatant was removed, and the cells in the multi-well plate were collected in 1.5 mL centrifuge tubes and centrifuged at 1000 rpm for 5 min, the supernatant was discarded, 1 mL of PBS was added into the centrifuge tubes to resuspend the cells, and the cells were centrifuged again, the PBS was discarded. 100 μL of cell lysis buffer (special for NO measurement) was added to the centrifuge tubes, placed on ice for half a minute, and then centrifuged for 5 min at 4° C. and 13300 rpm, and the supernatant was collected. 50 μL of the supernatant was taken in a 96-well plate, three parallel groups were set for each sample, and 50 μL of Griess reagent I and 50 μL of Griess reagent II were added in sequence. The OD value of each well was measured at 540 nm with a full-wavelength microplate reader, and the NO concentration was calculated using the standard curve, as shown in Tables 1 and 2.

[3] = system: mTORC1 and TSC2-P proteins; experiment: Expression level of myocardial injury marker proteins in myocardial hypoxia mouse, Western blot; assay type: in vivo; conditions: hypoxia model mouse pretreated with 20 mg/kg, FIG. 3
Excerpt: Western Blot gel preparation kit (Biyuntian Biotechnology Co., Ltd., Shanghai), BCA detection kit for protein quantification (Biyuntian Biotechnology Co., Ltd., Shanghai), ionization buffer, wet transfer solution, primary antibody (anti-TSC2-P, Abgent, 1:1000, A-AP3825a; anti-mTORC1, Abcam, 1:1000, ab120224; anti-GAPDH, Bioworld Technology, 1:500, AP0063), secondary antibody (Goat Anti-Rabbit IgG (H+L) HRP, 1:3000, Bioworld Technology, BS13278), 6-8-week-old male Kunming mouse.
The changes of protein expression levels are analyzed based on Western Blot bands.
• (1) Mouse heart tissue protein was extracted and centrifuged at 12,000 rpm for 15 min to collect the protein, the protein was quantified using a BCA kit, and added to boiling water in loading buffer and cook for 5 min for later use; • (2) SDS-PAGE gel was prepared and the sample was loaded to separate protein bands; • (3) After transferring the protein bands to the PVDF membrane, the membrane was blocked with milk to incubate primary and secondary antibodies in sequence. The protein bands were visualized using a chemiluminescence developer to analyze the changes of protein expression in each group, as shown in FIG. 3.

H9c2 cells [4] = experiment: Vitality of H9c2 cells under normoxia or hypoxia (CCK8); assay type: cell-based; conditions: 4 h; for improvement on the cell viability: normoxic condition, FIG. 1A
Procedure: The cells were washed twice with 5 mL PBS, 1 mL trypsin was added to digest the monolayer cultured H9c2 cells, a single cell suspension was prepared with serum-containing culture medium, and 5000-10000 cells per well were inoculated in a 96-well culture plate. The volume of culture medium per well is 100 μL, and the edge wells are filled with sterilized pure water. The culture plate was moved into a carbon dioxide incubator for culture for 24 h at 37° C., 5% CO2, and saturated humidity until the cells adhere to the wall. 100 μL culture medium in the well was aspirated, 50 μL fresh culture medium was added into the well, and different concentrations of compounds and reference drug isosorbide dinitrate were given respectively to the well. 50 μL drug was added to each well, 3 parallel groups and 1 normoxic group without drug addition as control were set, and concentration gradient of the drug is 10, 1, 0.1, 0.01, 0.001 μM. The normoxic group was incubated in a normal incubator at 5% CO2 and 37° C. for 4 h; and the hypoxic group was incubated in a hypoxic incubator (concentration of 02≤1%) at 37° C. for 4 h. After the culture was completed, 10 μL CCK8 reagent was added to each well and the normoxic group and the hypoxic group continued to be cultured in a normoxic incubator for 4 h, and the culture was terminated. The absorbance of each well was measured at 450 nm with a microplate reader to calculate the cell survival rate of cells at different concentrations, as shown in FIGS. 1A and 1B.

Row | SMILES | NO release (%) (H9c2 cells [2]; compound 5 μM) | NO release (%) (H9c2 cells [2]; compound 10 μM) | NO release (%) (H9c2 cells [2]; compound 15 μM) | NO release amount (%) (H9c2 cells [2]; compound 5 μM) | NO release amount (%) (H9c2 cells [2]; compound 10 μM) | NO release amount (%) (H9c2 cells [2]; compound 15 μM) | other results
1 | CN(N=O)c1ccc(OC(=O)OCc2ccc([N+](=O)[O-])cc2)cc1 [Compound I1, 4-((methylnitroso)amino) phenyl (4-nitrobenzyl) carbonate] | 25.24% | 24.38% | 20.15% | 0.24% | 0.84% | 0.16% | NO level in the heart [1]: significantly higher than that of the other two groups; anti-myocardial hypoxic damage effect [3]: excellent anti-myocardial hypoxic damage effect; expression of mTORC1 in the hearts ([3]; Western blot): restored to near a level of the normal group
2 | CN(N=O)c1ccc(OC(=O)OCc2ccc([N+](=O)[O-])cc2Cl)cc1 [Compound I2, 4-((methylnitroso)amino) phenyl (2-chloro-4-nitrobenzyl) carbonate] | 34.75% | 30.96% | 27.37% | 1.58% | 3.34% | 0.93% | –
3 | Cc1cc([N+](=O)[O-])ccc1COC(=O)Oc1ccc(N(C)N=O)cc1 [Compound I3, 4-((methylnitroso)amino) phenyl (2-methyl-4-nitrobenzyl) carbonate] | 40.58% | 45.42% | 43.21% | 0.43% | 0.92% | 0.32% | –
4 | CN(N=O)c1ccc(OC(=O)OCc2ccccc2[N+](=O)[O-])cc1 [Compound I4, 4-((methylnitroso)amino) phenyl (2-nitrobenzyl) carbonate] | 20.78% | 20.62% | 18.33% | 1.02% | 2.35% | 0.98% | improvement on the cell viability (H9c2 cells [4]; 1 μM): slight improvement on the cell viability
5 | CN(N=O)c1ccc(OC(=O)OCc2ccc(Cl)cc2[N+](=O)[O-])cc1 [Compound I5, 4-((methylnitroso)amino) phenyl (2-nitro-4-chlorobenzyl) carbonate] | – | 0.96% | – | – | 0.15% | – | –
6 | CN(N=O)c1ccc(OC(=O)OCc2ccc(Br)cc2[N+](=O)[O-])cc1 [Compound I6, 4-((methylnitroso)amino) phenyl (2-nitro-4-bromobenzyl) carbonate] | – | 0.94% | – | – | 0.17% | – | –
7 | Cc1ccc(COC(=O)Oc2ccc(N(C)N=O)cc2)c([N+](=O)[O-])c1 [Compound I7, 4-((methylnitroso)amino) phenyl (2-nitro-4-methylbenzyl) carbonate] | – | 1.83% | – | – | 0.12% | – | –
8 | CN(N=O)c1ccc(OC(=O)OCc2cc(Cl)ccc2[N+](=O)[O-])cc1 [Compound I8, 4-((methylnitroso)amino) phenyl (2-nitro-5-chlorobenzyl) carbonate] | – | 0.93% | – | – | 0.27% | – | –
9 | Cc1ccc([N+](=O)[O-])c(COC(=O)Oc2ccc(N(C)N=O)cc2)c1 [Compound I9, 4-((methylnitroso)amino) phenyl (2-nitro-5-methylbenzyl) carbonate] | – | 0.95% | – | – | 0.23% | – | –
10 | O=[N+]([O-])O[C@H]1CO[C@H]2[C@@H]1OC[C@H]2O[N+](=O)[O-] [Isosorbide dinitrate, isosorbide dinitrate] | – | – | – | – | – | – | viability of hypoxic cells (H9c2 cells [4]; hypoxic condition (O2≤1%), 0.001-10 μM, FIG. 1B): a certain improvement on the cell viability at high concentration; improvement on the cell viability (H9c2 cells [4]; 0.001-10 μM): does not improve the cell viability; NO release amount (H9c2 cells [2]; hypoxia condition, different concentrations (5, 10, 15 μM)): less than that under the normoxia condition

From patent US12275686B2, “NO donor compound, preparation method thereof, pharmaceutical composition comprising same, and use thereof” (SOUTHEAST UNIVERSITY, priority 2022, dated 2025)
